Article PMC7070078, “Accelerated identification of serine racemase inhibitor from Centella asiatica” (Scientific Reports, 2020)
Values joined by “and” are separate entries in the source; they are usually repeats but may differ in a detail not shown here. Identical values can stand only once. Blank lines part the entries; values can stand above or below the molecule they belong to.

Legend:
serine racemase [1] = target: T1, serine racemase (Homo sapiens, UniProt Q9GZT4); experiment: affinity pull-down from Centella asiatica extract on immobilized SR, identified by LC-MS/MS and FTIR; assay type: binding; set-up: gene SRR; recombinant His-tagged human SR immobilized on Ni-NTA beads
T1 sequence (Q9GZT4 1-340): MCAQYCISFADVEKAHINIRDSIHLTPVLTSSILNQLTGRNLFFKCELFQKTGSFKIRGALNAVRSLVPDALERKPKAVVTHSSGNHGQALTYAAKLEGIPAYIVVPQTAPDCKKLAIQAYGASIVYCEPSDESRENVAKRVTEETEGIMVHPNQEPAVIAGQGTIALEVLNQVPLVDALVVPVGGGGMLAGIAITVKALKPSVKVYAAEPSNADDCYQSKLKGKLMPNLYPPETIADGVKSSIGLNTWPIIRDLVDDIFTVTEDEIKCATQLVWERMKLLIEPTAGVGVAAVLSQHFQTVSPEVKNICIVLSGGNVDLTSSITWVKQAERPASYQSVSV

serine racemase [2] = target: T1, serine racemase; experiment: SR activity assay, reference inhibitor (Supplementary Fig. S6); assay type: biochemical; set-up: gene SRR; recombinant His-tagged human SR (1020 bp gene, NM_021947.1), expressed in E. coli
[3] = target: the molecule itself; experiment: SEC; Ni-NTA purified SR on Sephadex S-200, 1 ml/min, 20 mM Tris-HCl, 150 mM NaCl, 15 uM PLP pH 8.0

Molecule: C[C@H]1[C@H](C)CC[C@]2(C(=O)O)CC[C@]3(C)C(=CC[C@@H]4[C@@]5(C)C[C@@H](O)[C@H](O)[C@@](C)(CO)[C@@H]5[C@H](O)C[C@]43C)[C@H]12 [madecassic acid]
affinity pull-down from Centella asiatica extract on immobilized SR, identified (serine racemase [1]): Madecassoside and madecassic acid are the two compounds identified from the CA plant extract binding to SR.

IC50 (serine racemase [2]): 449 µM
Molecule: O=C(O)CC(=O)O [malonate]

B1: recombinant human serine racemase (enzyme, UniProt Q9GZT4 1-340, looked up)
chain: T1 sequence (Q9GZT4 1-340)
notes: serine racemase, human; printed size 37 kDa; no cleavage is described and the purified protein was later held on Ni-NTA beads; PLP was present in the purification buffers; also called SR; recombinant SR
stoichiometry N [3]: 2 and 4
